US7723304B2, “Systems for delivery and release of angiotensin-(1-7)” (Universidade Federal De Minas Gerais—UFMG, priority 2001, dated 2010)

What was measured:
[1] = system: G protein-coupled receptor, MAS; assay: binding of labeled angiotensin-(1-7) in mouse kidney slices (normal or MAS knockout); conditions: MAS knockout mice, 4 °C, autoradiography or fluorescent microscopy
Procedure: (§1) After incubation for variable intervals at 4 °C the slices were exposed to autoradioghraphic films or analysed by flourescent microscopy. […] The functional test for the absence of binding in knockout mice was made using the water diuresis model (administration of 5% of the body weight, of H2O).

ACE = ACE (Homo sapiens, UniProt P12821); conditions: read-out: IC50 for inhibition of ACE; cited from earlier work
Wistar rats = conditions: free (not encapsulated) peptide, 25-50 ng in the RVLM, previous studies; cited from earlier work
[2] = system: G protein-coupled receptor, MAS; assay: water diuresis model in wild type and MAS knockout mice; assay type: in vivo, mouse; conditions: MAS knockout mice, water load 5% of body weight
Procedure: (§2) Angiotensin-(1-7) labeled with 125I or rhodamine-angiotensin-(1-7), fluorescent, were incubated with mouse kidney slices from normal or MAS knockout animals. After incubation for variable intervals at 4 °C the slices were exposed to autoradioghraphic films or analysed by flourescent microscopy. In the knockout mice the specif binding for angiotensin-(1-7) disappeared while the binding for Ang II or Ang IV, used as controls, was inaltered. The Ang_(1-7) binding in kidney slices of wild type mice was displaced by the analogues D-Ala^7-Angiotensin-(1-7) e D-Pro^7-Angiotensin-(1-7). The functional test for the absence of binding in knockout mice was made using the water diuresis model (administration of 5% of the body weight, of H2O). […] In MAS knockout mice the antidiuretic effect of Ang-(1-7) was absent.

[3] = target: T1, G protein-coupled receptor, MAS (Mus musculus, UniProt P30554); assay: as above; assay type: in vivo; conditions: wild type mice, 4 pmol/10 g BW, water load 5% of body weight
T1 construct: from tissue; host or cells: mouse kidney slices (wild type; MAS knockout as control)
T1 sequence (P30554 1-324): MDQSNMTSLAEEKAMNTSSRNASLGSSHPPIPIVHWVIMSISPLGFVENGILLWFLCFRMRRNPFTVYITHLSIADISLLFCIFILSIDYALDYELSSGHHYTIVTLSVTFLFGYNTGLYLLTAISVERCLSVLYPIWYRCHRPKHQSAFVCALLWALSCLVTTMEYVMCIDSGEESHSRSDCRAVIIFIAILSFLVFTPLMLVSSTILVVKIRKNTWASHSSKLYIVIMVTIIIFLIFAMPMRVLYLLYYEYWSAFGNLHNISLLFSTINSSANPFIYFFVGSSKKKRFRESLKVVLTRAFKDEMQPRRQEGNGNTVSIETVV
Procedure: as §2

[4] = target: T1, G protein-coupled receptor, MAS; assay: binding of labeled angiotensin-(1-7) in mouse kidney slices (normal or MAS knockout); conditions: wild type mice
Procedure: as §1

ACE, sequence (P12821 30-1306, species assumed): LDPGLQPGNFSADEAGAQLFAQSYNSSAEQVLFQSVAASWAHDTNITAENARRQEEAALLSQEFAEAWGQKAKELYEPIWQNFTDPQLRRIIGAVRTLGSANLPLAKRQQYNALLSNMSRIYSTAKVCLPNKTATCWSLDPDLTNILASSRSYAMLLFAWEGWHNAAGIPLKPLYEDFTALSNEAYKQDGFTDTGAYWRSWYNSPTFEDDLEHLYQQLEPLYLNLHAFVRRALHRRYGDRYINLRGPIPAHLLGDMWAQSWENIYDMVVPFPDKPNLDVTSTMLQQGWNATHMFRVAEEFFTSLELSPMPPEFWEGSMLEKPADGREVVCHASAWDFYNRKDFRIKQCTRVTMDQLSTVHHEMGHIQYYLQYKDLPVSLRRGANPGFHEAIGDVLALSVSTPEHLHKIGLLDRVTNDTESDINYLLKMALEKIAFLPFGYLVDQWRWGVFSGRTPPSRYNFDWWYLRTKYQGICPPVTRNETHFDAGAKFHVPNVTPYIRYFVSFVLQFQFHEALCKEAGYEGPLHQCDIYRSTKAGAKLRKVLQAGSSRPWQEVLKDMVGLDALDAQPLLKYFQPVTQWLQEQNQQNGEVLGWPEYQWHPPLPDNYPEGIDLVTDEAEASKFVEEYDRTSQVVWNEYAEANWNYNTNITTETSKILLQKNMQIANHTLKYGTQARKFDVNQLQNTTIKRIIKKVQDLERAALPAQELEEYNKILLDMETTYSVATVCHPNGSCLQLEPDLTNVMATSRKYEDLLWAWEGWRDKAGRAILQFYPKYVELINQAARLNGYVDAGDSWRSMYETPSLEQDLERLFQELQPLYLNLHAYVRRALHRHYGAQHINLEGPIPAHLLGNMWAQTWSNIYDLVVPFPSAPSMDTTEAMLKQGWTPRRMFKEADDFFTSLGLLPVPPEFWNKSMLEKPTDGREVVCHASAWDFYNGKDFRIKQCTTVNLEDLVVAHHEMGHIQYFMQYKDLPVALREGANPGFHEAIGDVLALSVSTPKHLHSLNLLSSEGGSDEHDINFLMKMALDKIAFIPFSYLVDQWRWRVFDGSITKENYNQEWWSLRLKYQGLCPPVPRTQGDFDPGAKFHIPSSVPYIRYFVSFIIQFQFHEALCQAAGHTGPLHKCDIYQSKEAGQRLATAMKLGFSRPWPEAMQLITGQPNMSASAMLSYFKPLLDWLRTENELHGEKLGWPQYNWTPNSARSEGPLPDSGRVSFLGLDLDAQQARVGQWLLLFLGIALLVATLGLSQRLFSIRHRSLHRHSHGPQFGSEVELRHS

In the case of `CC[C@H](C)[C@H](NC(=O)[C@H](Cc1ccc(O)cc1)NC(=O)[C@@H](N)C(C)C)C(=O)N[C@@H](Cc1cnc[nH]1)C(=O)N1CCC[C@H]1C(=O)N[C@@H](Cc1ccccc1)C(=O)O` [Ang IV], the “binding in kidney slices of MAS knockout mice” value (“binding … of MAS knockout mice” for short) [1] is reported as “inaltered”.
For “DRVYIHP [Ang-(1-7), Asp-Arg-Val-Tyr-Ile-His-Pro]”, the IC50 (ACE) is listed as roughly 1 µM, the “duration of increase of PAM” value (Wistar rats) is listed as “approximately 10 min” and the “increase of PAM” value (Wistar rats) is listed as 15 mmHg. For the same compound, the “binding … of MAS knockout mice” value [1] was “disappeared”, the antidiuretic effect [2] was “absent” and the “urine volume (antidiuresis)” value [3] was “reduction of the urine volume”.
For “D-[Ala^7]-Ang-(1-7) [D-Ala^7-Angiotensin-(1-7)]”, the “displacement of Ang-(1-7) binding in kidney slices” value [4] was “displaced”.
For “Ang II: main peptide of RAS, used as binding control (DRVYIHPF; Angiotensin-2; UniProt P01019 25-32, looked up)”, the “binding … of MAS knockout mice” value [1] was “inaltered”.
For “D-Pro7-Ang-(1-7) [D-Pro^7-Angiotensin-(1-7)]”, the “displacement of Ang-(1-7) binding in kidney slices” value [4] was “displaced”.
